Test results reported in patent US20200209181A1, “ELECTROCHEMICAL METHOD AND DEVICE FOR DETECTING THE EFFECT OF ANTICANCER DRUGS” (Nano Hesgarsazan Salamat Arya, priority 2016, published 2020).

Columns and labels:
Type in all cases: cell-based, human
[1] = test system: MCF-7 cells; experiment: Cell cycle progression of drug treated MCF-7 cells by flowcytometry analysis
Protocol: Accordingly, exemplary MCF-7 cell lines isolated from grade I human breast tumors may be used as cancer cells. The MCF-7 cells may be maintained in a CO2 incubator containing about 5% CO2 and at a temperature of about 37° C. in a RPMI-1640 medium supplemented with a 5% fetal bovine serum, and 1% penicillin/streptomycin. The fresh medium may be replaced every other day. Prior to each experiment, cells may be trypsinized to be detached from the substrate and re-suspended on the SiNW electrodes of an exemplary biosensor of the present disclosure. To minimize the effect of trypsinization, the procedure may be done in less than about 4 minutes at a room temperature of about 20° C. to about 22° C. The biosensor including the attached cells may be held in an incubator for about 4 hours to achieve cells attachment on the SiNWs. Then the MBZ drug with a low concentration (about 2 nano-mole per liter) and with a high concentration (about 10.5 nano-mole per liter) may be added to the cells. The signal recording and biological assays may be investigated at about 2, 6 and 10 hours after addition of the drug. In addition, cell cycle progression for CTRL and drug treated MCF-7 cells may be determined by flowcytometry analysis that are shown in FIG. 9A (for CTRL cells), FIG. 9B (for treated cells with about 2 nano-mole per liter of MBZ) and FIG. 9C (for treated cells with about 10.5 nano-mole per liter of MBZ). The cell's fractions in apoptotic (part 901), G0/G1 (part 902), S (part 903) and G2/M (part 904) cycles are observable in all of panels. Also, the state of counted cells for each of these three situations is represented at the Right side of the figures. […] But, proportion of G0/G1 fraction (part 902) was changed in MBZ incubated samples. The peak of G0/G1 was about 1300 in CTRL sample (FIG. 9A) meanwhile it was reduced to about 800 in MBZ (about 2 nano-mole per liter) treated cells (FIG. 9B). The result can be confirmed by side scatter versus forward scatter (SSC-FSC) diagram as a strong sign of cells granularity (represented at Right side of FIGS. 9A, 9B and 9C). […] By increasing the dose of MBZ to about 10.5 nM (FIG. 9C), apoptotic behavior (part 901) of the cells was affected. […] Such disorders in the cycle of the cells after MBZ treatment would be well demanded by affected anodic/cathodic response of the cells measured by SiNWs electrodes.

[2] = test system: MCF-7 cells; experiment: Differential pulse voltammetry (DPV) response of MCF-7 cells attached on SiNW-based biosensor after drug treatment; settings: for Absolute DPV current peak: about 2 nano-mole per liter MBZ; for Absolute DPV: about 10.5 nano-mole per liter MBZ
Excerpt: For DPV measurement, a derivative of linear sweep voltammetry, with a series of regular voltage pulses superimposed on the potential linear sweep. The current may be sampled twice, just before the pulse application and again, late in the pulse lifetime. The current may be measured immediately before each potential change, then the current difference may be plotted as a function of potential. By sampling the current just before the potential was changed, the effect of the charging current may be decreased. In this example, the effect of Mebendazole (MBZ), which is an antitubulin drug that induces tubulin depolymerization in cancer cells, may be investigated via an exemplary electrochemical method of the present disclosure. The MCF-7 cells attached on SiNWs of an exemplary biosensor of the present disclosure may be treated with different doses of MBZ and the electrochemical response of an individual non-treated (hereinafter “CTRL”) cell and treated cells may be monitored. Accordingly, exemplary MCF-7 cell lines isolated from grade I human breast tumors may be used as cancer cells. The MCF-7 cells may be maintained in a CO2 incubator containing about 5% CO2 and at a temperature of about 37° C. in a RPMI-1640 medium supplemented with a 5% fetal bovine serum, and 1% penicillin/streptomycin. The fresh medium may be replaced every other day. Prior to each experiment, cells may be trypsinized to be detached from the substrate and re-suspended on the SiNW electrodes of an exemplary biosensor of the present disclosure. To minimize the effect of trypsinization, the procedure may be done in less than about 4 minutes at a room temperature of about 20° C. to about 22° C. The biosensor including the attached cells may be held in an incubator for about 4 hours to achieve cells attachment on the SiNWs. Then the MBZ drug with a low concentration (about 2 nano-mole per liter) and with a high concentration (about 10.5 nano-mole per liter) may be added to the cells. […]

[3] = test system: MCF-7 cells; experiment: Cyclic voltammetry (CV) response of MCF-7 cells attached on SiNW-based biosensor after drug treatment
Excerpt: For CV characterization, three-electrode electrochemical cyclic voltammetry may be performed using the electrochemical workstation. Instead of the system electrodes, the SiNW-based biosensor including integrated SiNW electrodes may be used that is designed and fabricated pursuant to the teachings of the present disclosure. CV assay may be performed between the integrated SiNW covered working electrode 103 and counter electrode 104, with an on chip reference electrode 105 (represented in FIGS. 1 and 5A). The reference electrode may be initially calibrated by an Ag/AgCl reference electrode in a solution of about 1 mM ferrocene carboxylic acid with about 1 mM potassium chloride. CV studies may be performed using DC voltage and applying no AC frequency. For CV data recording, measurements may be carried out at about −0.8 V to 0.8 V at a scan rate of about 100 mv/s. In this example, the effect of Mebendazole (MBZ), which is an antitubulin drug that induces tubulin depolymerization in cancer cells, may be investigated via an exemplary electrochemical method of the present disclosure. The MCF-7 cells attached on SiNWs of an exemplary biosensor of the present disclosure may be treated with different doses of MBZ and the electrochemical response of an individual non-treated (hereinafter “CTRL”) cell and treated cells may be monitored. […]

[4] = about 2 nano-mole per liter MBZ

Compound: COC(=O)Nc1nc2ccc(C(=O)c3ccccc3)cc2[nH]1 [MBZ, Mebendazole]
- amount of the cells in G0/G1 phase ([1]; about 10.5 nM MBZ, similar time): sharper reduction
- G2/M fraction relative to CTRL [1, 4]: less than half
- apoptotic behavior of MCF-7 cells [1, 4]: did not induce the apoptotic behavior
- peak of G0/G1 ([1]; about 2 nano-mole per liter MBZ (CTRL about 1300)): about 800
- apoptotic cells with hypodiploid DNA (subG1 fraction) ([1]; about 2 nano-mole per liter MBZ, compared with CTRL sample): slightly increased
- Absolute DPV current peak ([2]; 2 hours after treatment (CTRL about 5 nA)): about 300 nA
- Absolute DPV current peak ([2]; about 12 hours after treatment): about 900 nA
- Absolute DPV ([2]; 12 hours): about 2000 nA
- Absolute DPV ([2]; after 2 hours): about 1400
- anodic and cathodic spikes in CV diagrams ([3]; MBZ about 2 and about 10.5 nano-mole per liter, 2 hours after drug incubation, MCF-7 on SiNW electrodes): Both anodic and cathodic spikes may be observed
- height of the CV spikes ([3]; MBZ dose increased to about 10.5 nano-mole per liter, versus about 2 nano-mole per liter): increased by nearly three orders
